Results published in publication PMC10752971 (Frontiers in Pharmacology, 2023).
Read-outs that look alike come from different tables or passages of the source.

Assays:
FP receptor [1] = target: T1, FP receptor (Homo sapiens, UniProt P43088); experiment: [35S]-GTPγS immunoprecipitation assay of Gα-subunit coupling in MYLA cell membranes
Description: Tissue preparation: MYLA cells were grown to 95%–100% confluency in a T175 flask, lifted, and pelleted via standard cell culture techniques. The harvested cells were homogenised in ice-cold lysis buffer (composition (mM): HEPES, 20; EDTA, 1; MgCl2, 2; KCl, 10; DTT, 2; pH, 7.4) using a Coleman handheld homogeniser. The homogenates were cleared (1,000×g, 10 min, 4°C) and membranes were collected by centrifugation (16,100×g, 90 min, 4°C). The membranes were resuspended in freezing buffer [composition (mM): HEPES, 10; MgCl2, 1; DTT, 1; pH, 7.4], where the protein concentration was adjusted to 1.5 mg/mL and rapidly frozen in liquid nitrogen. The membranes were stored at −80°C until required.
Radioligand binding assay: 75 μg of membrane was added to 50 μL of assay buffer [composition (mM): HEPES, 10; MgCl2, 10; NaCl, 100; pH, 7.4] containing 1 nM [^35S]-GTPγS (1,250 Ci/mmol) and 10 μM GDP, with or without agonist and antagonists as required, and incubated at 30°C for 2 min. Non-specific binding (NSB) was determined by the inclusion of 10 μM unlabelled GTPγS. Incubation was terminated by the addition of 900 μL of ice-cold assay buffer, and the samples were transferred to ice. The cell membrane was recovered from the reaction mixture by centrifugation (16,100×g, 6 min, 4°C), and the supernatant was removed by aspiration. Membrane pellets were solubilised by the addition of 50 μL of ice-cold solubilisation buffer [composition (mM): Tris-HCl, 100; NaCl, 200; EDTA, 1; IGEPAL CA 630, 1.25% (v/v); 0.2% (w/v) SDS; pH, 7.4] and vortex mixing. […] The beads were washed and pelleted thrice with 500 μL of solubilisation buffer (less SDS) before re-suspension in Pico-Flour^TM scintillation cocktail (Perkin Elmer, Buckinghamshire, United Kingdom) where [^35S]-GTPγS was determined by standard liquid scintillation counting methods.
Data analysis: Specific binding was determined by CPM values and expressed as a % increase over basal (unstimulated), and plotted using the GraphPad Prism 9 software. […]

FP receptor [2] = target: T1, FP receptor; experiment: Antagonist Ca2+ assay: FP antagonists on PGF2α-stimulated Ca2+ transients in MYLA cells; assay type: cell-based; parameters: endogenous in cells; host or cells: MYLA cells (conditionally immortalised human myometrial cells; hTERT + temperature-sensitive SV40 large T)
Description: (§1) MYLA cells were grown to 95%–100% confluency in 3 cm^2 glass-bottom dishes (MatTek Corporation, MA, United States). The cells were serum starved for 24–48 h with 2% DMEM/F12 media and then incubated with 5 μM Calbryte^TM 520 AM (Stratech Scientific Ltd., Ely, United Kingdom) for 60 min at 37°C in a 95%/5% air/CO2-humidified environment, followed by 15 min at room temperature in the dark. […] The plates were then loaded on the stage of an Olympus IX81 inverted microscope and visualised with a 10x objective lens. Temperatures were maintained at 37°C. Calbryte^TM 520 AM was excited at Ex/Em: 490/525 nm. The cells were imaged for 3 min to allow any initial LED-induced Ca^2+ signalling to subside. […] Fluorescence was captured at a rate of one frame per second for 3 min, with agonist/antagonist injections occurring after a 30-s basal period.
(§2) Data analysis: Videos were visualised, and data were analysed using ImageJ, the image analysis software. […] The frequency of Ca^2+ oscillations was calculated as the average number of oscillations over time in seconds (Hz). All data were visualised using the GraphPad Prism 9 software.
(§3) Experiments were repeated on MYLA cells, where N represents the number of biological repeats.

MYLA cells [3] = experiment: RT-qPCR of OXTR, CALD1 and MYLK expression in MYLA cells; assay type: cell-based, human; settings: for OXTR, CALD1, and MYLK expression at 48 h (RT-qPCR): 1 µM PGF2α + 1 µM antagonist vs 1 µM PGF2α; for Expression of OXTR, CALD1, and MYLK (RT-qPCR time series): 1 µM PGF2α + 1 µM antagonist, 1–48 h
MYLA cells [4] = experiment: RNA-Seq time series of marker gene expression in MYLA cells; assay type: cell-based, human
Description: The MYLA cells were seeded into a T75 flask and allowed to grow to 95%–100% confluency. […] The cells were harvested at T = 1, 3, 6, 9, 12, 24, and 48 h, pelleted (1,200 rpm, 5 min, 4°C), and snap frozen on dry ice before storage at −80°C.
RNA was extracted from pelleted cells using the GenElute^TM Total RNA Purification Kit (Sigma Aldrich, Poole, United Kingdom) according to the manufacturer’s instructions. RNA concentration and purity were determined using a NanoDrop 1000 Spectrophotometer (Thermo Fisher Scientific, Loughborough, United Kingdom). All RNA samples were stored at −80°C until use.
RNA quality was verified using a Bioanalyzer according to the manufacturer’s instructions (Eukaryote Total RNA Nano, Agilent). Illumina TruSeq RNA libraries were prepared and sequenced using a NextSeq 500 with a high-output 75 bp cycle cartridge (Illumina, Cambridge, United Kingdom) by the University of Warwick Genomic Facility.
bcl2fastq v2.20.0.422 was used for demultiplexing each sample. FastQC v0.11.9 was used to quality control check the demultiplexed FastQC files, and MultiQC v1.9 consolidated the QC reports. Reads were aligned to the human reference genome build GRCh38 release 86 using STAR version 2.7.9a. The number of reads mapped to each genomic feature was calculated with featureCounts v2.0.1. The counts were imported into R Studio and analysed with the DESeq2 package.
Data analysis: TPM data were processed and analysed using R Studio and then plotted using the GraphPad 9 software.
The experiments were technical triplicates of biological triplicate samples taken from seven time points. The data in Figures 8–10 were analysed by two-way ANOVA and post hoc Dunnett’s multiple comparison test comparing treatments to the ethanol vehicle.

FP receptor [5] = target: T1, FP receptor; settings: MYLA cells
Description: as §1, §2, §3

[6] = test system: transfected HEK-293 cell lines; parameters: method as in Martos et al., 2016; settings: ref Martos et al., 2016; cited from earlier work
[7] = test system: induced pulmonary fibrosis mouse models; parameters: method as in Beck et al., 2020; settings: ref Beck et al., 2020; cited from earlier work
[8] = 300 pM–10 µM antagonist in the presence of 1 µM PGF2α, N = 3, read-out: IC50, effect on AUC
[9] = 300 pM–10 µM antagonist in the presence of 1 µM PGF2α, N = 3, read-out: IC50, effect on Fmax
[10] = 300 pM–10 µM antagonist in the presence of 1 µM PGF2α, N = 3, read-out: IC50, effect on frequency of Ca2+ oscillations
[11] = four-parameter fit, bottom constrained to 0
[12] = normalised to averaged ionomycin Fmax

T1 sequence (P43088 whole entry): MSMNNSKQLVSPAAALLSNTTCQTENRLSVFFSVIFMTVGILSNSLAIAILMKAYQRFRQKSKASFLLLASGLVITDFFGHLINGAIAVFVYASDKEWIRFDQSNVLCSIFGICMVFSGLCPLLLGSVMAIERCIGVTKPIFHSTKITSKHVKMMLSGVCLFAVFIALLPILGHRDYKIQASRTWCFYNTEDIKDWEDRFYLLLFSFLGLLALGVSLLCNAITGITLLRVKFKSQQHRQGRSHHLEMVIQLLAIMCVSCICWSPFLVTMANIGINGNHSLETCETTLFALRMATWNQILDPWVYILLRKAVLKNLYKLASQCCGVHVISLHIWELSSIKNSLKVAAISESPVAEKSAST

SMILES	IC50 (FP receptor [2]; [8]) [µM]	IC50 (FP receptor [2]; [9]) [µM]	IC50 (FP receptor [2]; [10]) [µM]	HillSlope ± SD, effect on AUC (FP receptor [2]; in the presence of 1 µM PGF2α)	HillSlope ± SD, effect on Fmax (FP receptor [2]; in the presence of 1 µM PGF2α)	HillSlope ± SD, effect on frequency (FP receptor [2]; in the presence of 1 µM PGF2α)	other results
Cc1c(-c2ccccc2)nc2ccc(Br)cc2c1C(=O)NCC(CCC(=O)O)c1ccccc1Cl (stereo not drawn) [Compound 39/40, 5-(6-bromo-3-methyl-2-phenylquinoline-4-carboxamido)-4-(2-chlorophenyl) pentanoic acid]	0.09	0.284	0.154	−0.98 ± 0.27	−0.54 ± 1.63	−2.00 ± 0.56	PGF2α-stimulated coupling to Gαq/11 (FP receptor [1]; 1 µM compound 39/40 + 1 µM PGF2α, 2 min): reversed; OXTR, CALD1, and MYLK expression at 48 h (RT-qPCR) (MYLA cells [3]): significant decrease; Expression of OXTR, CALD1, and MYLK (RT-qPCR time series) (MYLA cells [3]): reduced
Cc1c(N2CCCC2)nc2ccc(Br)cc2c1C(=O)NCC(CCC(=O)O)c1ccccc1Cl (stereo not drawn) [Compound 46/47, 5-(6-bromo-3-methyl-2-(pyrrolidin-1-yl)quinoline-4-carboxamido)-4-(2-chlorophenyl)-pentanoic acid]				−1.37 ± 0.68	−1.02 ± 0.40	−0.69 ± 0.30	
O=C(N[C@H](c1ccc(F)cc1)[C@H]1CCS(=O)(=O)C1)[C@@H]1CCN1S(=O)(=O)c1ccc(-c2cccnc2)cc1 [Compound N582707, (S)-N-((S)-((R)-1,1-dioxidotetrahydrothiophen-3-yl)(4-fluorophenyl)methyl)-1-((4-(pyridin-3-yl)phenyl)sulfonyl)azetidine-2-carboxamide]	0.0504	0.0213	0.0221		−0.49 ± 0.20	−0.55 ± 0.17	IC50 (FP receptor [2]; in the presence of 1 µM PGF2α, N = 3, read-out: pIC50 ± SD, effect on frequency of Ca2+ oscillations (converted)): 0.0219 µM; OXTR, CALD1, and MYLK expression at 48 h (RT-qPCR) (MYLA cells [3]): significant decrease; Expression of OXTR, CALD1, and MYLK (RT-qPCR time series) (MYLA cells [3]): reduced; Expression of fibroblast marker genes (DCN, FBLN1, LOXL1, PDGFRA) (MYLA cells [4]; 1 µM PGF2α + 1 µM FP antagonist, up to 48 h): increased the expression
CCCCC[C@H](O)/C=C/[C@@H]1[C@@H](C/C=C\CCCC(=O)O)[C@@H](O)C[C@H]1O [PGF2α, prostaglandin F2α]							[35S]-GTPγS binding to Gαq/11 (FP receptor [1]; 1 µM PGF2α vs basal, 2 min): significantly increased; Gαs and Gαi coupling (FP receptor [1]; stimulation with PGF2α): no effect; Expression of key genes involved in labour such as OXTR (also IL6, IL11) (MYLA cells [4]; 1 µM PGF2α vs vehicle, 1–48 h): upregulated; Expression of smooth muscle marker genes (ACTA2, CALD1, CNN1, COL4A1, COL4A2, MYLK, MYOCD, TAGLN, TGFB2, TGFB3) (MYLA cells [4]; 1 µM PGF2α, up to 48 h): increased expression; Effect on Fmax, AUC and frequency of intracellular Ca2+ oscillations compared to basal (FP receptor [5]; 300 pM to 10 µM PGF2α): concentration-dependent increase; HillSlope ± SEM, AUC (FP receptor [5]; [11]): 1.06 ± 0.45; HillSlope ± SEM, Fmax (FP receptor [5]; [11]): 0.91 ± 0.28; HillSlope ± SEM, Frequency (FP receptor [5]; [11]): 0.88 ± 0.33; Emax ± SEM, Frequency (FP receptor [5]; frequency of Ca2+ oscillations): 0.01 ± 0.01; Emax ± SEM, AUC (FP receptor [5]; [12]): 1.50 ± 0.14; Emax ± SEM, Fmax (FP receptor [5]; [12]): 0.14 ± 0.01
CC(C)Cn1ncc2cc(Cl)cc(Cn3nc(N)c4cc(C(=O)O)ccc43)c21 [Compound 68, 3-amino-1-((5-chloro-1-isobutyl-1H-indazol-7-yl)methyl)-1H-indazole-5-carboxylic acid]	0.175	0.194	0.978	−0.44 ± 0.19	−0.47 ± 0.19	−0.49 ± 0.17	IC50 (FP receptor [2]; in the presence of 1 µM PGF2α, N = 3, read-out: pIC50 ± SD, effect on AUC (converted)): 0.0891 µM; Potency in FLIPR functional assays [6]: potent
O=C(N[C@@H](CCO)c1ccc(F)cc1)[C@@H]1SCCN1S(=O)(=O)c1ccc(-c2ccccc2)cc1 [OBE002, [(S)-3-(biphenyl-4-sulfonyl)-thiazolidine-2-carboxylic acid [(S)-1-(4-fluorophenyl)-3-hydroxy-propyl]-amide]]	0.18	0.0783	1.98	−0.41 ± 0.17	−0.38 ± 0.15	−0.36 ± 0.19	pIC50 ± SD, effect on Fmax (FP receptor [2]; in the presence of 1 µM PGF2α, N = 3): 7.11 ± 0.68
Cc1c(N2CCCC2)nc2ccc(Br)cc2c1C(=O)NC[C@H](CCC(=O)O)c1ccccc1Cl [BAY-6672]							Effects in induced pulmonary fibrosis mouse models [7]: anti-inflammatory and antifibrotic effects
